Results reported in PubChem BioAssay AID844 (SRMLSC, 2007).
Active and inactive are the calls of the source. The rule behind the calls is not given here.

System: MRP1 cells, doxorubicin viability shift, 10 uM compound
Experiment: viability protection against doxorubicin, MRP-1 line – cell-based, doxorubicin EC50 shift, dose response (AID 844)
Conditions: for EC50: measured here: doxorubicin EC50 with compound

Compound | fold increase in Dox EC50 | EC50 [µM]
O=C(c1ccc(COc2ccc(Br)cc2)o1)N1N=C(C(F)F)CC1(O)C(F)F (stereo not drawn) | 1.06 (inactive) | 5.71
CCOC(=O)c1nnc(-c2ccccc2)nc1Oc1ccccc1Cl | 0.99 (inactive) | 5.34
Cc1cc(NC(=O)c2cc(C(C)C)on2)nn1Cc1ccc(Cl)cc1 | 1.35 (inactive) | 7.27
O=C(O)c1cccc(N2C(=O)C3CC=C(Cl)CC3C2=O)c1 (stereo not drawn) | 1.48 (inactive) | 7.97
O=C1[C@@H]2[C@H](Cc3ccc(O)cc3)N[C@]3(C(=O)Nc4ccccc43)[C@@H]2C(=O)N1c1ccc(F)cc1 | 1.46 (inactive) | 7.88
CCn1c(C)cc(/C=C2\NC(=O)N(Cc3ccc(Cl)cc3)C2=O)c1C | 1.14 (inactive) | 6.15
Cn1c(C(=O)NCc2ccccc2)cc2oc3ccccc3c21 | 1.46 (inactive) | 7.9
Cc1ccc(/C=C2\SC(=S)N(CCC(=O)NNC(=O)c3cccnc3)C2=O)cc1 | 0.91 (inactive) | 4.9
COc1ccc(/C=C/C(=O)Nc2c(C)nn(C)c2C)cc1COc1ccc(Br)cc1 | 0.84 (inactive) | 4.51
CCc1ccc(-c2csc(NC(=O)Oc3ccccc3)n2)cc1 | 1.23 (inactive) | 6.65
CCOC(=O)c1c(-c2ccc(C)o2)csc1NC(=O)CSc1ncn[nH]1 | 0.51 (inactive) | 2.74
O=C(CSc1ncn[nH]1)Nc1nnc(-c2ccccc2)s1 | 0.58 (inactive) | 3.12
CNC[C@H](O)c1ccc(O)c(O)c1 | 0.69 (inactive) | 3.75
O=C(c1cnn2c(C(F)(F)F)cc(-c3cccs3)nc12)N1CCN(C(c2ccccc2)c2ccccc2)CC1 | 0.17 (inactive) | 0.916
Brc1ccc(OCc2nnc3n2CCC3)cc1 | 1.67 | 9.02
CCc1ccc(NC(=O)Cn2c(=O)oc3cc(S(=O)(=O)N4CCOCC4)ccc32)cc1 | 1 (inactive) | 5.4
COc1cccc(-c2csc(NC(=O)Oc3ccccc3)n2)c1 | 1.52 | 8.23
CC(C(=O)N1c2ccccc2CCc2ccccc21)n1nnc(-c2ccc(N(C)C)cc2)n1 (stereo not drawn) | 1.06 (inactive) | 5.7
COc1ccc(N2C(S)=C(C#N)C(=O)NC2c2ccco2)cc1 (stereo not drawn) | 0.41 (inactive) | 2.2
COc1ccc(-c2ocnc2C(=O)Nc2ccccc2N2CCCCC2)cc1 | 0.81 (inactive) | 4.37
CC(C)(CNC(=O)/C=C/c1ccc(F)cc1)CNC(=O)/C=C/c1ccc(F)cc1 | 0.38 (inactive) | 2.07
Cc1ccc(C2=CC(C)(c3ccc(C)cc3)Nc3nc(C(F)(F)F)nn32)cc1 (stereo not drawn) | 0.94 (inactive) | 5.1
CCN(CC)S(=O)(=O)c1cccc(NC(=O)CCSc2ccc(Cl)cc2)c1 | 0.89 (inactive) | 4.81
Cc1ccc(Cl)cc1N1CCN(C(=O)Cc2ccc(-n3c(=O)[nH]c4ccsc4c3=O)cc2)CC1 | 0.78 (inactive) | 4.24
Cc1onc(-c2ccccc2)c1C(=O)Nc1nnc(N(C)Cc2ccccc2)s1 | 0.64 (inactive) | 3.46
Cc1ccnc(NC(=O)COc2ccc3oc4c(c3c2)CCCC4)c1 | 0.78 (inactive) | 4.21
COc1ccc(OC)c(-c2csc(NC(=O)C3c4ccccc4Oc4ccccc43)n2)c1 | 0.96 (inactive) | 5.16

Compound | fold increase in Dox EC50 | EC50 [µM]
O=C(CCCCl)NC1=NN(c2ccccc2)C(=O)C1 | 1.56 | 8.43
CCOC(=O)C1CCCN(Cc2ccc(OC)cc2OC)C1 (stereo not drawn) | 0.35 (inactive) | 1.91
CNC(=S)Nc1ccc(C)cc1 | 0.67 (inactive) | 3.64
N#Cc1cc2c(nc1SCc1ccc(Cl)cc1)CCCC2 | 1.07 (inactive) | 5.75
Cc1ccc(NC(=O)CCSc2nnnn2-c2ccc3c(c2)OCO3)cc1C | 0.74 (inactive) | 3.98
O=C(O)CCN1C(=O)CC(N2C(=O)/C(=C/c3ccc(Cl)cc3)SC2=S)C1=O (stereo not drawn) | 1.3 (inactive) | 7.04
Cc1ccc(Nc2nc(CSc3nnnn3C)cs2)cc1 | 1.18 (inactive) | 6.36
O=C1N=C(c2ccccc2)S/C1=C\c1cccs1 | 1.2 (inactive) | 6.5
COc1ccc(-n2ncc3c(N4CCCc5ccccc54)ncnc32)cc1 | 0.67 (inactive) | 3.62
COc1cc(C)ccc1N(CCCN1C(=O)c2cccc3cccc(c23)C1=O)C(=O)c1cccs1 | 1.13 (inactive) | 6.12
O=C1c2cccc3cccc(c23)C(=O)N1CCN1CCN(CC(O)COc2ccccc2)CC1 (stereo not drawn) | 0.32 (inactive) | 1.71
COc1cccc(C2CC(c3ccc(Cl)cc3Cl)n3nc(N)nc3N2)c1 (stereo not drawn) | 1.03 (inactive) | 5.56
N=C(N)SCc1nc2ccccn2c1Br | 0.28 (inactive) | 1.49
O=C(COc1ccc(Br)cc1)c1ccc2c(c1)CCCC2 | 1.17 (inactive) | 6.29
C/C(=N\NC(=O)CCc1c[nH]c2ccccc12)c1cccc([N+](=O)[O-])c1 | 0.8 (inactive) | 4.33
O=C(NCC1(c2ccccc2)CCOCC1)c1ccc(Br)o1 | 1.3 (inactive) | 7.01
COc1ccc(N2CCN(c3nc(Cl)nc(N4CCOCC4)n3)CC2)cc1 | 0.69 (inactive) | 3.72
O=C1CC(c2ccccc2)c2cc(O)ccc2O1 (stereo not drawn) | 0.99 (inactive) | 5.35
CC(=O)Nc1ccc2[nH]c(C)c(CC=C(Cl)Cl)c(=O)c2c1 | 0.72 (inactive) | 3.87
O=C(N/N=C/c1ccccc1[N+](=O)[O-])c1ccc(COc2ccccc2-c2ccccc2)cc1 | 1 (inactive) | 5.39
Cn1nccc1CNC(=O)c1ccnn1C | 0.66 (inactive) | 3.56
CCCCCCn1c(O)c(/C=C2\C=NN=C2c2ccccc2)sc1=S | 0.77 (inactive) | 4.16
O=C1NC(=Nc2ccc(Cl)cc2)SC1Cc1cccc(Cl)c1Cl (stereo not drawn) | 1.19 (inactive) | 6.41
C=CCc1c(C)nc(-c2ccccc2)nc1N/N=C(\C)c1ccccc1 | 0.43 (inactive) | 2.34
COc1ccc(C2CC(c3ccc(Cl)cc3)n3nc(N)nc3N2)cc1 (stereo not drawn) | 0.65 (inactive) | 3.52
Cc1ccccc1Cn1ccc(NC(=O)c2onc(C)c2Cl)n1 | 1.15 (inactive) | 6.24
CCOC(=O)C1=C(C)N=c2s/c(=C\c3ccc(OC(C)=O)cc3)c(=O)n2C1/C=C/c1ccccc1 (stereo not drawn) | 0.34 (inactive) | 1.85
